Source: ChEMBL document CHEMBL1201862, “PubChem BioAssay data set” (2004)
The source made the active and inactive calls.

How the values were obtained:
HEK293 = assay: inhibitors of LMP1-driven NF-kB reporter, dose response, cell-based, HEK293, luciferase, cherry-pick (AID 588343); type: functional; settings: Homo sapiens
[1] = C. albicans growth with fluconazole, confirmation, fluorescence, retest (AID 2467); type: functional, cell-based
[2] = NIH-3T3 fibroblast cytotoxicity, dose response, cytotoxicity control, cell-based, fluorescence, Alamar Blue, secondary assay (AID 2327); type: functional;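 also: NIH-3T3 mouse fibroblasts cultured with fluconazole at 8 µg/mL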
[3] = biological target: T1, Sentrin-specific protease 7 (Homo sapiens, UniProt Q9BQF6); type: functional;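 also: Luminescence-based dose-response confirmation of ultra-high-throughput screening hits, measuring inhibition of SENP7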
T1 sequence (Q9BQF6 whole entry): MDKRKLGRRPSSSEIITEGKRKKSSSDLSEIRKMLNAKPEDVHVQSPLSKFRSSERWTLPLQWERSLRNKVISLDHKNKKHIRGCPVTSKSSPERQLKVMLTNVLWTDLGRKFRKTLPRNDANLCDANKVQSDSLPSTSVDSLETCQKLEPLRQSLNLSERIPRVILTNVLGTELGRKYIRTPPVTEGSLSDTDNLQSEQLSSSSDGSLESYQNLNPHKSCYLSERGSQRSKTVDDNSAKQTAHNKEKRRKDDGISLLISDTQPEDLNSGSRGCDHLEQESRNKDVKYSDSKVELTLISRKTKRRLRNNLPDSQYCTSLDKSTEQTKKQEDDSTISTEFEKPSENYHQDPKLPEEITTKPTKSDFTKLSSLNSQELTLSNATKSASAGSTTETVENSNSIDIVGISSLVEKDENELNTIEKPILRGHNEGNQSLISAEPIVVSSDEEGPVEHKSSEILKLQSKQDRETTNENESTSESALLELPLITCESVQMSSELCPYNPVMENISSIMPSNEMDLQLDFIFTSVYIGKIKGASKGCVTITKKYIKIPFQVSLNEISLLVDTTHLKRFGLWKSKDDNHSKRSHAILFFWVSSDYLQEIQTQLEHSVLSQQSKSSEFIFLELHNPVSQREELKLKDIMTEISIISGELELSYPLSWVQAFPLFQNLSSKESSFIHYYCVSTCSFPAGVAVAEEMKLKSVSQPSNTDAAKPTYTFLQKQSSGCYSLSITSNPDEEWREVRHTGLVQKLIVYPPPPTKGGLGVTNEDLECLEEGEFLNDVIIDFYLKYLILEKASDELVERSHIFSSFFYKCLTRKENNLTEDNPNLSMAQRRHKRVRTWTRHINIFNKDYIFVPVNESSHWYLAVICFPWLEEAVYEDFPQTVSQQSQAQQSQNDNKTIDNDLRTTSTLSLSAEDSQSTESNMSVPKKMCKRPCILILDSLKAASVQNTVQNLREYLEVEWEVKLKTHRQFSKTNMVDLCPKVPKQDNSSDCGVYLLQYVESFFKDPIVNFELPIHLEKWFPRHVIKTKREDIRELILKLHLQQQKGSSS

[4] = biological target: T2, Sentrin-specific protease 8 (Homo sapiens, UniProt Q96LD8); type: functional;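 also: luminescence read-out of SENP8 inhibition, dose-response confirmation following an ultra-high-throughput screen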
T2 sequence (Q96LD8 whole entry): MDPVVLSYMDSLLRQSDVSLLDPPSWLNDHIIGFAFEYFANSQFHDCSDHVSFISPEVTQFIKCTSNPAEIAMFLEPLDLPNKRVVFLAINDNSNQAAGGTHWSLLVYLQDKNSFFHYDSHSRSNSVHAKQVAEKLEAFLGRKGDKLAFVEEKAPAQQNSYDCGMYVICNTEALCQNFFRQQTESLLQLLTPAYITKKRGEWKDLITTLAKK

Caspase-3 = biological target: T3, Caspase-3 (Homo sapiens, UniProt P42574); type: functional;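 also: Dose-response selectivity test against caspase-3 for candidate inhibitors of sentrin-specific proteases (SENPs)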
T3 sequence (P42574 whole entry): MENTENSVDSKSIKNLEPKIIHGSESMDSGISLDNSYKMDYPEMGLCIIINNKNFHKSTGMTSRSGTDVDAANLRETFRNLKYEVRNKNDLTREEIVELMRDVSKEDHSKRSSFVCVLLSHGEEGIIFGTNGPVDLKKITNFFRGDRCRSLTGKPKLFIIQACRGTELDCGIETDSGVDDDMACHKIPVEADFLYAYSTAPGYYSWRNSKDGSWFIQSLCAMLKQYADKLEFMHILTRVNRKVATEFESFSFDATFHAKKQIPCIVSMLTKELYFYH

[5] = biological target: T4, Sentrin-specific protease 6 (Homo sapiens, UniProt Q9GZR1); type: functional;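 also: Luminescence-based dose-response confirmatory assay of SENP6 inhibition, following up an ultra-high-throughput screen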
T4 sequence (Q9GZR1 whole entry): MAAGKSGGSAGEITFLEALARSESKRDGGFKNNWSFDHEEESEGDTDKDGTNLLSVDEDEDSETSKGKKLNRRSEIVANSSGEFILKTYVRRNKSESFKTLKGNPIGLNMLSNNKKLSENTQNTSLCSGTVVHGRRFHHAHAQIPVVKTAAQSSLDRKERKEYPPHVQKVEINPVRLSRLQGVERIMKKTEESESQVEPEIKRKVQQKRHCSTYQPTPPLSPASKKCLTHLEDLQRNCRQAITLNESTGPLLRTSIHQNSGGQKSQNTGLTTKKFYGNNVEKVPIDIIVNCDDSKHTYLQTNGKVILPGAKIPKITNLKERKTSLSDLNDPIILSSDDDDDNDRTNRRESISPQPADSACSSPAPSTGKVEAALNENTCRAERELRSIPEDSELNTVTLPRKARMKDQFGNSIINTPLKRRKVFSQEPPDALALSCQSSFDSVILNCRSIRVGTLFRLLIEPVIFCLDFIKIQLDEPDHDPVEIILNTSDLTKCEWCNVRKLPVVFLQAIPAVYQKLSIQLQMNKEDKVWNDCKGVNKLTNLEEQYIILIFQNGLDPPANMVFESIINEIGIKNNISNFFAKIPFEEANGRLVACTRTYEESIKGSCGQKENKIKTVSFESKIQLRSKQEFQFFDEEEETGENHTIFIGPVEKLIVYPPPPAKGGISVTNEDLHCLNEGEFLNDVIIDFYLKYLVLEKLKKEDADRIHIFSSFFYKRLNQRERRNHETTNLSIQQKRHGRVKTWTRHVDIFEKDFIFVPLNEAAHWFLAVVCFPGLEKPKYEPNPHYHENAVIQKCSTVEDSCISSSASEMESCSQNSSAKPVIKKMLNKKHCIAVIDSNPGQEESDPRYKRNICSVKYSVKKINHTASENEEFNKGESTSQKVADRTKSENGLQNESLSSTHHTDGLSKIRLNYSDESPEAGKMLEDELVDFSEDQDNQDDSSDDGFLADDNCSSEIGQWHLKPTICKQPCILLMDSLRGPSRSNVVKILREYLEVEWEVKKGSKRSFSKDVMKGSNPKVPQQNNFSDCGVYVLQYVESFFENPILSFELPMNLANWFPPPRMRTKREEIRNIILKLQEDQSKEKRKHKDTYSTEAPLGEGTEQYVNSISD

[6] = biological target: Dual specificity tyrosine-phosphorylation-regulated kinase 1A (Rattus norvegicus, UniProt Q63470); type: biochemical, Homo sapiens
Leucine aminopeptidase = biological target: T5, Leucine aminopeptidase (Plasmodium falciparum 3D7, UniProt Q8IL11); assay: P. falciparum M17LAP inhibitors, primary screen, biochemical, fluorogenic H-Leu-NHMec substrate, 1536-well (AID 1619); type: functional
T5 sequence (Q8IL11 whole entry): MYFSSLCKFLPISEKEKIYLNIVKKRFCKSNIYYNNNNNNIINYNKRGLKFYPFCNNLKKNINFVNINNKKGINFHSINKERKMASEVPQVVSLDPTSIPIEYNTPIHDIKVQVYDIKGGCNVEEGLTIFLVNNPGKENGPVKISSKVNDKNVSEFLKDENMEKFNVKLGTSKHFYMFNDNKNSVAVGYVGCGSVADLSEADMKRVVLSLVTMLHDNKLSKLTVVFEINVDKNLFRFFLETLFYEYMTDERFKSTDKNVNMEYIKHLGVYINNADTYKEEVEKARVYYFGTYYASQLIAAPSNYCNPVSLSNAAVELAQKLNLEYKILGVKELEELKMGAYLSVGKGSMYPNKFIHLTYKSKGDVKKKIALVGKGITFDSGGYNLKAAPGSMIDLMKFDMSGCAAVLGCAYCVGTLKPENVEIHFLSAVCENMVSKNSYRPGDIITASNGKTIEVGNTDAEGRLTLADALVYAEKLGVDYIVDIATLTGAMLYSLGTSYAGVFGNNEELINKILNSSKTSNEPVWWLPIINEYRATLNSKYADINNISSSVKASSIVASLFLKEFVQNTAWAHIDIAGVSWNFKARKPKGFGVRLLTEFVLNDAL

[7] = biological target: T6, RNA-binding protein pos-1 (Caenorhabditis elegans, UniProt G5EF15); assay: inhibitors of POS-1/mex-3 RNA binding, dose response, biochemical, fluorescence polarization (AID 1964);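 also: purified POS-1 fused to maltose binding protein made in E. coli; potency of compounds blocking POS-1 binding to fluorescent RNA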
T6 sequence (G5EF15 whole entry): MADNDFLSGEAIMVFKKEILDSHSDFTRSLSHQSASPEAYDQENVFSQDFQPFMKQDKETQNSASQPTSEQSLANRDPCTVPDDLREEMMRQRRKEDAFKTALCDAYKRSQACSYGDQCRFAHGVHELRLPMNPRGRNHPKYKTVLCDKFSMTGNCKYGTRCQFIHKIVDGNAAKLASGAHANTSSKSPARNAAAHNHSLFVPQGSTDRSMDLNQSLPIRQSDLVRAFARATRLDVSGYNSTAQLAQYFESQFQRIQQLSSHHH

[8] = biological target: T7, Zinc finger protein mex-5 (Caenorhabditis elegans, UniProt Q9XUB2); assay: MEX-5/TCR-2 RNA interaction inhibitors, dose response, biochemical, C. elegans, fluorescence polarization (AID 1960)
T7 sequence (Q9XUB2 whole entry): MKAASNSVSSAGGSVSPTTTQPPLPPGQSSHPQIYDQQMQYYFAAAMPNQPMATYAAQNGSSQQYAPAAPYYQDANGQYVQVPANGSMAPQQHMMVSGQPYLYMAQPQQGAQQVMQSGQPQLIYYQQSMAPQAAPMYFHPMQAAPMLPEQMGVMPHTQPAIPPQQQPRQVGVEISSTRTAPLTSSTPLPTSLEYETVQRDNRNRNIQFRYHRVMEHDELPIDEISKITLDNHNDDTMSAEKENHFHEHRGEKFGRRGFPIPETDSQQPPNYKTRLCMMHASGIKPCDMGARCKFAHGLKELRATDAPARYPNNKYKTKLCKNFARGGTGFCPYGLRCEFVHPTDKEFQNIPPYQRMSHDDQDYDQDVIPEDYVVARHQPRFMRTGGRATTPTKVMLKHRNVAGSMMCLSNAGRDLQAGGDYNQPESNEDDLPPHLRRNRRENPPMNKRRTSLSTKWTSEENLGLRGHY

Vero = Vero cell cytotoxicity, cytotoxicity control for flavivirus capping enzyme inhibitors (AID 588742); type: functional; settings: Chlorocebus sabaeus
Escherichia coli = assay: microbe, parasite or virus in culture
[9] = biological target: T8, Apoptotic protease-activating factor 1 (Homo sapiens, UniProt O14727); type: functional
T8 sequence (O14727 whole entry): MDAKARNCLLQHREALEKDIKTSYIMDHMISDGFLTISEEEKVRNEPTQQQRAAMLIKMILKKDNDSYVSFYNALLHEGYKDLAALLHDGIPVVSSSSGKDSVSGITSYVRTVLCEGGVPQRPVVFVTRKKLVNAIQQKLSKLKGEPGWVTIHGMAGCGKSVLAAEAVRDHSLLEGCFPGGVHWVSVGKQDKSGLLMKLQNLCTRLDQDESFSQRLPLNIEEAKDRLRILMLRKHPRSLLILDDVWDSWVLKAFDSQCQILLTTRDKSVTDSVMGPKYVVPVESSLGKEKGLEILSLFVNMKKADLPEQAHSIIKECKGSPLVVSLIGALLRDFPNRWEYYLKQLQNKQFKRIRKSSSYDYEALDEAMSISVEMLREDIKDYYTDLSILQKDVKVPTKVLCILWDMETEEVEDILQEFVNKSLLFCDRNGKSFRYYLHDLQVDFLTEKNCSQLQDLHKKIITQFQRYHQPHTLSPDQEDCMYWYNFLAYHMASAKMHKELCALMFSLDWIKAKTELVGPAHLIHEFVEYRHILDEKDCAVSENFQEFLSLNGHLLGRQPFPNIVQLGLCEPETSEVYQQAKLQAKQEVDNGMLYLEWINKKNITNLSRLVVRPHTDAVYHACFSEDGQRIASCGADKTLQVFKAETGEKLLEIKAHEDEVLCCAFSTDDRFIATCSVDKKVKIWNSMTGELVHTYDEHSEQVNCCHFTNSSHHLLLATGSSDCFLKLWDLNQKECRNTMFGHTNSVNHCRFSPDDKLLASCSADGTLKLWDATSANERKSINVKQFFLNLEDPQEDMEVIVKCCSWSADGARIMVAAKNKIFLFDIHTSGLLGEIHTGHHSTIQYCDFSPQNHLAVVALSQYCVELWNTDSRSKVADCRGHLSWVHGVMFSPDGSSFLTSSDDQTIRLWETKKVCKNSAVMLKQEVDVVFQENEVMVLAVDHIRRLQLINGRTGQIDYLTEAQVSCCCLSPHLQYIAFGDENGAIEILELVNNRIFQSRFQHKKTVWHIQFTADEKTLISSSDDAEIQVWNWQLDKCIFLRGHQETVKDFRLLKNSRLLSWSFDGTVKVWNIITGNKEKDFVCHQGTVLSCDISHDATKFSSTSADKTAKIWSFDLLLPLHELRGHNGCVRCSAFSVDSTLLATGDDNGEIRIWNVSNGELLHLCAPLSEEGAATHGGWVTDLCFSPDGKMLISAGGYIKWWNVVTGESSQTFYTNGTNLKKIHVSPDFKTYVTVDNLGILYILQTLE

CCn1c2ccccc2c2cc(/C=N/n3c(C)nnc3C)ccc21
AC50 (HEK293): 34.2 µM (active)

CCCCCc1ccc(-c2ccc(/C=C/C(=O)O)cc2)nc1
EC50 [1]: 2.03 µM (active) | AC50 (HEK293): 20.8 µM (active) | EC50 [2]: > 160 µM (inconclusive) | IC50 [3]: 6.37 µM (active) | IC50 [4]: 8.8 µM (active) | IC50 (Caspase-3): 35.4 µM (active) | IC50 [5]: 11.2 µM (active)

COc1ccc(Nc2ncnc3nc[nH]c23)cc1OC
AC50 [6]: 12 µM (active) | IC50 (Leucine aminopeptidase): 48.5 µM (active) | EC50 [7]: > 300 µM (not active) | EC50 [8]: 23.9 µM (active)

O=C(O)/C=C/c1ccc2ccccc2n1
AC50 (HEK293): 47.7 µM (active)

COc1cc(/C=C2\SC(=O)NC2=O)ccc1Oc1ccc([N+](=O)[O-])cc1[N+](=O)[O-]
CC50 (Vero): > 40 µM (active) | AC50 [6]: 7.72 µM (active)

Clc1ccccc1-c1nn2c(-c3ccncc3)nnc2s1
AC50 (Escherichia coli): 23.3 µM (active) | IC50 [9]: 19.1 µM (active)

Cc1nc(COc2ccccc2Cl)sc1-c1ccnc(N)n1
AC50 [6]: 0.235 µM (active)
